{"source": "patent US12643899B2", "about": "“Antiviral agents, uses thereof and methods for their preparation” (The University of British Columbia, priority 2020, dated 2026)", "key": {"[1]": {"test_system": "ZIKV", "experiment": "ZIKV infectivity by semisolid overlay plaque assay after pre-treatment of A549 and U87 MG cells", "format": "cell-based, Zika virus", "details": "for reduction in ZIKV titer: CA 250 nM 1 h pre-treatment, MOI 1.0, 3 d"}, "[2]": {"test_system": "ZIKV", "experiment": "Secreted NS1 (sNS1) ELISA, ZIKV-infected A549 cells", "format": "cell-based, Zika virus", "details": "Zika virus, 24 h pre-treatment, MOI 1.0, 2 d", "protocol": "(§1) Error bars represent SD among 2 biological replicates.\n(§2) Cultured A549 cells were treated with various concentrations of CA or PF-429242 for 24 h before being washed with PBS and inoculated with ZIKV (ZIKV strain VR 1843, Puerto Rico, 2015; ATCC) at MOI 1.0 for 1 h. Following the removal of the inoculum, cells were incubated in fresh media for 2 d before the supernatant was collected, clarified, and secreted NS1 protein abundance was measured by an ELISA kit (BioFront Technologies) according to the manufacturer's instructions. Curve fitting was performed in Igor Pro (WaveMetrics) using a hyperbolic fit algorithm (FIG. 4; upper and middle plots) and IC50 and TI values obtained. IC50 and TI values were also obtained for CA via plaque assay (PFU; FIG. 4, lower plot). FIG. 4 (upper plot) is an ED50 curve for the PF inhibitor based on the detection of secreted Non-Structural protein 1 (sNS1), secreted viral biomarker. sNS1 was detected using an Elisa test (commercially available). FIG. 4 (middle plot) is an ED50 curve for CA based on the detection of secreted Non-Structural protein 1 (sNS1), secreted viral biomarker. sNS1 was detected using an Elisa test (commercially available)."}, "[3]": {"test_system": "ZIKV", "experiment": "Plaque assay (PFU) dose response, ZIKV-infected A549 cells", "format": "cell-based", "details": "Zika virus", "protocol": "as §1, §2\nBottom: ED50 curve for CA based on the detection of secreted infectious virus particles, as viral biomarker. Titer of the infectious virus particles (Plaque forming units) determined using plaque assays."}, "[4]": {"test_system": "DENV-3", "experiment": "DENV-3 intracellular dsRNA (Cellomics) in A549 cells", "format": "cell-based, dengue virus", "protocol": "(§3) Error bars represent SD among 3 biological replicates. Cultured A549 cells were treated with the indicated concentrations of CA (1=Mock, 2=0 M, 3=1 μM, 4=5 M, 5=10 M, 6=20 µM) or PF-429242 (7=15 M) for 1 h before being washed with PBS and infected with DENV-2, DENV-3, or DENV-4 at MOI 1.0 for 48 h. Cells were labeled for viral dsRNA with […] then imaged and quantified using the Cellomics ArrayScan™ VTI High Content Screening system.\n(§4) Viruses. ZIKV: ZIKV strain PRVABC59 (Puerto Rico/2015) (ATCC #VR-1843) was used in these studies, specifically three separate stocks generated in Vero E6 cells with titres of 1.35×10^8 pfu/mL, 1.0×10^7 pfu/mL, and 2.9×10^6 pfu/mL respectively. DENV strains: DENV-2 strain NGC, DENV-3 strain H-87, and DENV-4 strain H-241 were kindly provided by National Microbiology Laboratory, Winnipeg, MB, Canada.\n(§5) A549 cells were seeded onto Corning tissue culture treated 96 well plates and incubated at 37 degrees Celsius and 5% CO2 for 24 h. CA was diluted in MEM complete media to concentrations of 1 μM, 5 μM, 10 μM, 20 μM, including a 0 μM condition. Diluted CA was added to each well and cells were incubated at 37 degrees Celsius and 5% CO2 for 1 h. After 1 h, cells were washed once with PBS to remove CA and were then infected with DENV-2, -3 or -4 at an MOI of 1. […] Labeled 96 well plates were imaged and quantified using the Cellomics ArrayScan VTI. […]"}, "[5]": {"test_system": "DENV-4", "experiment": "DENV-4 intracellular dsRNA (Cellomics) in A549 cells", "format": "cell-based, dengue virus", "protocol": "as §3, §4, §5"}, "[6]": {"biological_target": "T1, V-ATPase (Homo sapiens, UniProt P27449)", "T1 construct": "endogenous in cells; host or cells: A549 cells (ATCC #CCL-185, or acquired from Synthego)", "T1 sequence (P27449 whole entry, looked up)": "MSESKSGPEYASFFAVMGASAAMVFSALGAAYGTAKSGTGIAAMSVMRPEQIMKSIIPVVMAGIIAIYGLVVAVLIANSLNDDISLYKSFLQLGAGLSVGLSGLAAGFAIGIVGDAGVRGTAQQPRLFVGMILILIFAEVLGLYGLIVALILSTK", "experiment": "Acridine orange vital staining of intracellular organelles of A549 cells (V-ATPase inhibition)", "format": "cell-based", "details": "CA 250 nM, 6 h", "protocol": "Cultured A549 cells were treated with 1 μM CD, or 250 nM CA or the V-ATPase specific inhibitor bafilomycin A1 (100 nm) for 6 h. After removing the culture medium and washing the cells with Hanks' balanced salt solution (HBSS), a 1:4000 dilution of acridine orange (2% solution, Polysciences Inc.) in HBSS was added to cells and incubated for 10 min. Cells were then washed again with HBSS and analyzed by fluorescence microscopy. In color images, a red color corresponds to the protonated version of the molecule, which permeates acidic organelles and becomes sequestered following protonation. One representative of 3 biological replicates is shown."}, "[7]": {"test_system": "ZIKV", "experiment": "Extracellular ZIKV titer in infected brain organoids", "format": "cell-based, Zika virus", "details": "1 μM CA, 72 hours", "protocol": "FIG. 18 is a plot showing extracellular ZIKV titer for four brain organoid systems after treatment with 1 μM CA for 72 hours in comparison to untreated controls.\nFIG. 17 is a schematic showing the general method 20 used in Example 6. Referring to FIG. 17, following growth of the brain organoids in STEMdiff™ media 22 (4 organoids/well), the media was aspirated 24. Then, 500 μL ZIKV at the desired MOI in fresh media was added 26 and the brain organoids incubated at 37° C. for 3 hours with gentle shaking 28. The brain organoids were then washed with 2×1 mL PBS 30, and fresh media and CA or cladoniamide C (CC) added to the desired concentration 32 prior to incubation for the desired time at 37° C. 34. The supernatant was collected and frozen at −86° C. 36 prior to analysis and the brain organoids transferred to an Eppendorf with paraformaldehyde for electron microscopy 38.\n(§6) FIG. 18 is a plot showing the anti-ZIKV activity of cladoniamide A (incubation with 1 μM CA for 72 hours; 2 biological replicates, each with 4 organoids/well) using four brain organoid systems. There was a greater than 4-log reduction in extracellular ZIKV titer when treated with CA. […] FIGS. 20 and 21 show plots showing the anti-ZIKV activity of CA and CC (incubation with 10 μM CA or CC for 69 hours, MOI 1; 4 technical replicates as there were 4 organoids/[…])."}, "[8]": {"test_system": "brain organoids", "experiment": "CellTiter Glo 3D cell viability assay in brain organoids", "format": "cell-based", "details": "1 μM", "protocol": "FIG. 19 is a plot showing toxicity results for brain organoids treated with 1 μM CA.\nas §6"}}}
{"molecule": "COc1c2n(c3ccccc13)[C@]1(O)C(=O)N(C)C(=O)[C@]1(O)c1c-2[nH]c2ccc(Cl)cc12", "note": "[CA, (11S,15R)-7-chloro-11,15-dihydroxy-23-methoxy-13-methyl-3,13,16-triazahexacyclo[14.7.0.0^2,10.0^4,9.0^11,15.0^17,22]tricosa-1(23),2(10),4(9),5,7,17,19,21-octaene-12,14-dione]", "values": [{"measurement": "reduction in ZIKV titer", "setting": "[1]; A549 cells", "result": "greater than 4 log"}, {"measurement": "reduction in ZIKV titer", "setting": "[1]; U87 MG cells", "result": "greater than 4 log"}, {"measurement": "inhibition of production of infectious ZIKV virions", "setting": "[1]; at 50 nm (so in the source), FIG. 3", "result": "dramatically inhibited"}, {"measurement": "IC50", "setting": "[2]", "result": 80, "unit": "nM"}, {"measurement": "IC50", "setting": "[3]", "result": 110, "unit": "nM"}, {"measurement": "activity against Dengue virus 3 in vitro", "setting": "[4]; 1-20 μM, FIG. 8 middle plots", "result": "good activity"}, {"measurement": "IC50", "setting": "[4]; Dengue virus, DENV3, DENV-3, intracellular dsRNA (Cellomics)", "result": 1500, "unit": "nM"}, {"measurement": "activity against Dengue virus 4 in vitro", "setting": "[5]; 1-20 μM, FIG. 8 lower plots", "result": "good activity"}, {"measurement": "IC50", "setting": "[5]; Dengue virus, DENV4, DENV-4, intracellular dsRNA (Cellomics)", "result": 3200, "unit": "nM"}, {"measurement": "vital staining with acridine orange of intracellular organelles", "setting": "[6]", "result": "inhibited vital staining"}, {"measurement": "reduction in extracellular ZIKV titer", "setting": "[7]", "result": "greater than 4 log"}, {"measurement": "toxicity to brain organoids", "setting": "[8]", "result": "not toxic"}]}
